Measured values as given in US20250288587A1, “Methods of Treating Fibrosis” (Athira Pharma, Inc., priority 2022, published 2025).

Experiments:
MRC-5 cells = experiment: TGFβ-stimulated αSMA expression in MRC-5 cells (HTRF); assay type: cell-based; conditions: for αSMA expression: combined with 0.01 ng/ml HGF; for Significant reduction in αSMA via HTRF compared to TGFβ alone: TGFβ 1 ng/ml, HGF 0.01 ng/ml, 48 h
Description: In this study, pulmonary-derived immortalized fibroblasts, MRC-5 cells, were cultured as a model of the early transition to fibrosis, and αSMA expression was measured using an immunodetection system driven by homogenous time-resolved fluorescence (HTRF) technology. This detection system produces a fluorescent signal in the presence of αSMA in cell lysates. Cells were grown to confluence in 96-well culture plates in complete media, and then transitioned to serum-free media for 2 hours. Next TGFβ (final 1 ng/ml in serum-free media) was added to the cells to stimulate the fibrotic transition. After 2 hours, media containing either HGF or HGF combined with one of the compounds was added to the cells. After incubation for 48 hours, cells were lysed and processed for αSMA HTRF to detect the levels of αSMA expression and compared to TGFβ-stimulated cultures. Statistical analysis consisted of 1-way ANOVA with a Dunnett's multiple comparison's post-test.

[1] = test system: pulmonary LPS-stimulated rats; experiment: Cytokine expression in BALF supernatant (multiplex immunoassay), LPS-induced acute pulmonary inflammation; assay type: in vivo
CFA-stimulated rats = experiment: CFA inflammatory pain model, cytokine expression in paw skin; assay type: in vivo; conditions: day 8
Description: Response to peripheral inflammatory stimulus can be modeled by administering complete Freund's adjuvant (CFA), a suspension of desiccated mycobacterium in paraffin oil and mannide monooleate, by subcutaneous injection into the rat's footpad. The introduction of CFA to peripheral tissues leads to a rapid, sustained, inflammatory reaction in the treated tissue within 24 hours. Subcutaneous administration of CFA in the plantar region of the paw induces inflammatory pain behaviors that persist for at least 8 days. CFA treatment also leads to the accumulation of inflammatory cytokines in paw tissue at the site of injury, which, if unresolved, can lead to formation of fibrotic tissue. The extent of inflammatory response to CFA can be assessed by quantification of inflammatory cytokines in paw skin lysate, and inflammatory pain behaviors by mechanical allodynia (von Frey test) and thermal hyperalgesia (Hargreaves test).
In another study, Compounds 1a, 5a, and 6a were similarly tested against CFA-induced inflammatory stimulation in the right hind foot for their ability to reduce pain behaviors. This study also included quantification of inflammatory cytokine expression in paw skin lysate. Inflammatory pain stimulation with CFA injection and assessment of mechanical and thermal pain behaviors were performed as described above, with the exception that only post-dose pain behavior testing is reported.
Intraplantar CFA injection occurred at day 0. Treatment with Compounds 1a, 5a, and 6a occurred at days −2, 1, 3, and 7. At day 8, the rats were terminated and cytokine levels were measured in paw skin and plasma. Tissue from paw bone, joint, and muscle were obtained for H&E staining and analysis. Cytokine levels in test compound-treated animals were compared to CFA-stimulated animals. Analytes included interleukin 4 (IL-4), tumor necrosis factor alpha (TNF-α) and interferon gamma (IFN-γ). Statistical analysis consisted of 1-way ANOVA followed by Dunnett's multiple comparisons post-test. Mechanical allodynia and thermal hyperalgesia were tested 1 hour post-dosing on days 1, 3, and 7. PWT refers to […] paw withdrawal threshold where a higher value corresponds to a higher pain threshold. PWL refers to […] paw withdrawal latency where a higher value corresponds to a higher pain threshold.

[2] = test system: pulmonary LPS-stimulated rats; experiment: Immune cell infiltration in BALF, LPS-induced acute pulmonary inflammation; assay type: in vivo; conditions: 24 h and 0.5 h before LPS; for Neutrophils in BALF, reduction in cell count vs disease control / Total Leukocytes in BALF, reduction in cell count vs disease control: BALF 4 h post LPS
Description: Acute pulmonary inflammation can be effectively modeled in rats by intratracheal administration of bacterial lipopolysaccharides (LPS). Pulmonary inflammation that is left unresolved can lead to pulmonary fibrosis. The normal process of inflammation is regulated and promoted by expression, secretion, and distribution of inflammatory signaling proteins. Therapeutics intended to reduce inflammation are commonly identified by their ability to change the expression levels of inflammatory signaling molecules, either by disruption of the inflammatory pathway directly, or resolution of the inflammatory signaling cascade. The severity of inflammatory response can be measured by quantifying the amount of immune cell infiltration and secretion of cytokine signaling proteins in bronchoalveolar lavage fluid (BALF).
In this study, acute pulmonary inflammation was induced in healthy male Sprague-Dawley rats (7-9 weeks old at study start) by intratracheal instillation of […] LPS in saline. Test animals were treated with test compounds twice, at 24 hours and 0.5 hours before LPS treatment by intravenous (IV) injection. […] Four hours post LPS administration, animals were euthanized by intraperitoneal injection of thiopentone and 20 mL of cold Hanks Balanced Salt Solution, pH 7.2, was infused into the lungs through tracheal cannulation. BALF was then collected.
Immune cell infiltration was performed by counting total leukocytes using a MUSE® mini flow cytometer, and by manual counting of neutrophil cells in cytospin smears stained with Leishman's staining reagent.

[3] = 0.075 mg/kg IV, 24 h and 0.5 h before LPS
[4] = 0.75 mg/kg IV, 24 h and 0.5 h before LPS
[5] = 7.5 mg/kg IV, 24 h and 0.5 h before LPS

CCC(C)CN1CC2N(Cc3ccc(C(F)(F)F)cc3)CCC(=O)N2[C@@H](C)C1=O (stereo partly shown) [Compound 5a]
αSMA expression (MRC-5 cells; 1 nM): significantly reduced αSMA | αSMA expression (MRC-5 cells; 1 uM): significantly reduced αSMA | Significant reduction in αSMA via HTRF compared to TGFβ alone (MRC-5 cells; test compound 1 nM): + (+ = p < 0.05) | Significant reduction in αSMA via HTRF compared to TGFβ alone (MRC-5 cells; test compound 1 μM): ++++ (++++ = p < 0.001) | CCL3, significant change in cytokine expression in BALF supernatant [1, 3]: + (+ = Significant change in cytokine quantification, p < 0.05 by Student's T-test) | CX3CL1, significant change in cytokine expression in BALF supernatant [1, 3]: + (+ = Significant change in cytokine quantification, p < 0.05 by Student's T-test) | EGF, significant change in cytokine expression in BALF supernatant [1, 3]: + (+ = Significant change in cytokine quantification, p < 0.05 by Student's T-test) | IFN-γ, significant change in cytokine expression in BALF supernatant [1, 3]: + (+ = Significant change in cytokine quantification, p < 0.05 by Student's T-test) | IL-1α, significant change in cytokine expression in BALF supernatant [1, 3]: + (+ = Significant change in cytokine quantification, p < 0.05 by Student's T-test) | IL-1β, significant change in cytokine expression in BALF supernatant [1, 3]: + (+ = Significant change in cytokine quantification, p < 0.05 by Student's T-test) | IL-10, significant change in cytokine expression in BALF supernatant [1, 3]: + (+ = Significant change in cytokine quantification, p < 0.05 by Student's T-test) | IL-12p70, significant change in cytokine expression in BALF supernatant [1, 3]: + (+ = Significant change in cytokine quantification, p < 0.05 by Student's T-test) | IL-17A, significant change in cytokine expression in BALF supernatant [1, 3]: + (+ = Significant change in cytokine quantification, p < 0.05 by Student's T-test) | IFN-γ, significant change in cytokine expression in BALF supernatant [1, 4]: + (+ = Significant change in cytokine quantification, p < 0.05 by Student's T-test) | IL-1α, significant change in cytokine expression in BALF supernatant [1, 4]: + (+ = Significant change in cytokine quantification, p < 0.05 by Student's T-test) | IL-1β, significant change in cytokine expression in BALF supernatant [1, 4]: + (+ = Significant change in cytokine quantification, p < 0.05 by Student's T-test) | IL-10, significant change in cytokine expression in BALF supernatant [1, 4]: + (+ = Significant change in cytokine quantification, p < 0.05 by Student's T-test) | IL-17A, significant change in cytokine expression in BALF supernatant [1, 4]: + (+ = Significant change in cytokine quantification, p < 0.05 by Student's T-test) | IL-1α, significant change in cytokine expression in BALF supernatant [1, 5]: + (+ = Significant change in cytokine quantification, p < 0.05 by Student's T-test) | IL-10, significant change in cytokine expression in BALF supernatant [1, 5]: + (+ = Significant change in cytokine quantification, p < 0.05 by Student's T-test) | cytokines with significant changes in expression in BALF supernatant versus LPS-only animals ([1]; p<0.05, Student's T-test, any tested dose): CCL3, CXCL1, IFN-γ, IL-1α, IL-1β, IL-10, IL-12p70, and IL-17A | IFN-γ expression in paw skin, change compared to CFA alone (CFA-stimulated rats; 10 mg/kg PO): + (+ = statistically significant change in expression compared to CFA alone, p < 0.05) | IL-4 expression in paw skin, change compared to CFA alone (CFA-stimulated rats; 10 mg/kg PO): + (+ = statistically significant change in expression compared to CFA alone, p < 0.05) | TNF-α expression in paw skin, change compared to CFA alone (CFA-stimulated rats; 10 mg/kg PO): + (+ = statistically significant change in expression compared to CFA alone, p < 0.05) | IFN-γ expression in paw skin, change compared to CFA alone (CFA-stimulated rats; 20 mg/kg PO): + (+ = statistically significant change in expression compared to CFA alone, p < 0.05) | IL-4 expression in paw skin, change compared to CFA alone (CFA-stimulated rats; 20 mg/kg PO): + (+ = statistically significant change in expression compared to CFA alone, p < 0.05) | TNF-α expression in paw skin, change compared to CFA alone (CFA-stimulated rats; 20 mg/kg PO): + (+ = statistically significant change in expression compared to CFA alone, p < 0.05) | Neutrophils in BALF, reduction in cell count vs disease control ([2]; 0.075 mg/kg IV): ++ (++ = >25% reduction in cell count vs disease control) | Total Leukocytes in BALF, reduction in cell count vs disease control ([2]; 0.075 mg/kg IV): ++ (++ = >25% reduction in cell count vs disease control) | Neutrophils in BALF, reduction in cell count vs disease control ([2]; 0.75 mg/kg IV): + (+ = >5% reduction in cell count vs disease control) | Total Leukocytes in BALF, reduction in cell count vs disease control ([2]; 0.75 mg/kg IV): + (+ = >5% reduction in cell count vs disease control) | Neutrophils in BALF, reduction in cell count vs disease control ([2]; 7.5 mg/kg IV): + (+ = >5% reduction in cell count vs disease control) | Total Leukocytes in BALF, reduction in cell count vs disease control ([2]; 7.5 mg/kg IV): + (+ = >5% reduction in cell count vs disease control) | total leukocyte counts and neutrophil counts in BALF compared to LPS-only controls ([2]; IV): reduced both total leukocyte counts and neutrophil counts
